In ChEMBL document CHEMBL4507310, “Data for DCP probe A-1211212” (2021):

What was measured:
[1] = molecular target: Cyclin-dependent kinase 9 (Homo sapiens) (UniProt P50750); settings: Compound concentration 1000.0 nM
[2] = molecular target: Serine/threonine-protein kinase TAO3 (Homo sapiens) (UniProt Q9H2K8); settings: Compound concentration 1000.0 nM
[3] = molecular target: Insulin-like growth factor 1 receptor (Homo sapiens) (UniProt P08069); settings: Compound concentration 1000.0 nM
[4] = molecular target: Epidermal growth factor receptor (Homo sapiens) (UniProt P00533); settings: Compound concentration 1000.0 nM
[5] = molecular target: G protein-coupled receptor kinase 4 (Homo sapiens) (UniProt P32298); settings: Compound concentration 1000.0 nM
[6] = molecular target: Sodium-dependent dopamine transporter (Homo sapiens, UniProt Q01959); experiment: dopamine transporter (h) Eurofins-Cerep binding assay; parameters: ligand concentration 4 nM; settings: filed as antagonist, Compound concentration 10.0 uM
[7] = molecular target: Mitogen-activated protein kinase 8 (Homo sapiens) (UniProt P45983); settings: Compound concentration 1000.0 nM
[8] = molecular target: Serine/threonine-protein kinase 26 (Homo sapiens) (UniProt Q9P289); settings: Compound concentration 1000.0 nM
[9] = molecular target: Androgen receptor (Homo sapiens) (UniProt P10275); experiment: AR (h) Eurofins-Cerep binding assay; parameters: ligand concentration 1 nM; settings: filed as agonist, Compound concentration 10.0 uM
[10] = molecular target: Ephrin type-A receptor 2 (Homo sapiens) (UniProt P29317); settings: Compound concentration 1000.0 nM
[11] = molecular target: Mitogen-activated protein kinase kinase kinase 3 (Homo sapiens) (UniProt Q99759); settings: Compound concentration 1000.0 nM
[12] = molecular target: Non-receptor tyrosine-protein kinase TNK1 (Homo sapiens) (UniProt Q13470); settings: Compound concentration 1000.0 nM
[13] = molecular target: Ribosomal protein S6 kinase beta-1 (Homo sapiens) (UniProt P23443); settings: Compound concentration 1000.0 nM
[14] = molecular target: Non-receptor tyrosine-protein kinase TYK2 (Homo sapiens) (UniProt P29597); settings: Compound concentration 1000.0 nM
[15] = molecular target: Dual specificity mitogen-activated protein kinase kinase 4 (Homo sapiens) (UniProt P45985); settings: Compound concentration 1000.0 nM
[16] = molecular target: Serine/threonine-protein kinase TAO2 (Homo sapiens) (UniProt Q9UL54); settings: Compound concentration 1000.0 nM
[17] = molecular target: Mitogen-activated protein kinase 10 (Homo sapiens) (UniProt P53779); settings: Compound concentration 1000.0 nM
[18] = molecular target: RAC-alpha serine/threonine-protein kinase (Homo sapiens) (UniProt P31749); settings: Compound concentration 1000.0 nM
[19] = molecular target: Citron Rho-interacting kinase (Homo sapiens) (UniProt O14578); settings: Compound concentration 1000.0 nM
[20] = molecular target: Mitogen-activated protein kinase kinase kinase 9 (Homo sapiens) (UniProt P80192); settings: Compound concentration 1000.0 nM
[21] = molecular target: Tyrosine-protein kinase JAK3 (Homo sapiens) (UniProt P52333); settings: Compound concentration 1000.0 nM
[22] = molecular target: Serine/threonine-protein kinase PAK 4 (Homo sapiens) (UniProt O96013); settings: Compound concentration 1000.0 nM
[23] = molecular target: Mitogen-activated protein kinase 1 (Homo sapiens) (UniProt P28482); settings: Compound concentration 1000.0 nM
[24] = molecular target: Mast/stem cell growth factor receptor Kit (Homo sapiens) (UniProt P10721); settings: Compound concentration 1000.0 nM
[25] = molecular target: Dual specificity mitogen-activated protein kinase kinase 5 (Homo sapiens) (UniProt Q13163); settings: Compound concentration 1000.0 nM
[26] = molecular target: Vascular endothelial growth factor receptor 2 (Homo sapiens) (UniProt P35968); settings: Compound concentration 1000.0 nM
[27] = molecular target: Homeodomain-interacting protein kinase 1 (Homo sapiens) (UniProt Q86Z02); settings: Compound concentration 1000.0 nM
[28] = tested on: Tyrosine-protein kinase ABL1 (Homo sapiens), P00519 [F317L]; settings: Compound concentration 1000.0 nM
[29] = molecular target: Receptor-type tyrosine-protein kinase FLT3 (Homo sapiens) (UniProt P36888); settings: Compound concentration 1000.0 nM
[30] = molecular target: Serine/threonine-protein kinase OSR1 (Homo sapiens) (UniProt O95747); settings: Compound concentration 1000.0 nM
[31] = molecular target: Alpha-1A adrenergic receptor (Homo sapiens) (UniProt P35348); experiment: Alpha1A (h) Eurofins-Cerep binding assay; parameters: ligand concentration 0.1 nM; settings: filed as antagonist, Compound concentration 10.0 uM
[32] = molecular target: Tyrosine-protein kinase CSK (Homo sapiens) (UniProt P41240); settings: Compound concentration 1000.0 nM
[33] = molecular target: Casein kinase I isoform alpha-like (Homo sapiens) (UniProt Q8N752); settings: Compound concentration 1000.0 nM
[34] = molecular target: ALK tyrosine kinase receptor (Homo sapiens) (UniProt Q9UM73); settings: Compound concentration 1000.0 nM
[35] = molecular target: Serine/threonine-protein kinase PAK 1 (Homo sapiens) (UniProt Q13153); settings: Compound concentration 1000.0 nM
[36] = molecular target: Tyrosine-protein kinase Fer (Homo sapiens) (UniProt P16591); settings: Compound concentration 1000.0 nM
[37] = molecular target: Glucocorticoid receptor (Homo sapiens) (UniProt P04150); experiment: GR (h) Eurofins-Cerep binding assay; parameters: ligand concentration 1.5 nM; settings: filed as agonist, Compound concentration 10.0 uM
[38] = molecular target: T1, Muscarinic acetylcholine receptor M2 (Homo sapiens) (UniProt P08172); experiment: M2 (h) Eurofins-Cerep binding assay; parameters: ligand concentration 2 nM; settings: filed as antagonist, Compound concentration 10.0 uM
T1 sequence (whole entry): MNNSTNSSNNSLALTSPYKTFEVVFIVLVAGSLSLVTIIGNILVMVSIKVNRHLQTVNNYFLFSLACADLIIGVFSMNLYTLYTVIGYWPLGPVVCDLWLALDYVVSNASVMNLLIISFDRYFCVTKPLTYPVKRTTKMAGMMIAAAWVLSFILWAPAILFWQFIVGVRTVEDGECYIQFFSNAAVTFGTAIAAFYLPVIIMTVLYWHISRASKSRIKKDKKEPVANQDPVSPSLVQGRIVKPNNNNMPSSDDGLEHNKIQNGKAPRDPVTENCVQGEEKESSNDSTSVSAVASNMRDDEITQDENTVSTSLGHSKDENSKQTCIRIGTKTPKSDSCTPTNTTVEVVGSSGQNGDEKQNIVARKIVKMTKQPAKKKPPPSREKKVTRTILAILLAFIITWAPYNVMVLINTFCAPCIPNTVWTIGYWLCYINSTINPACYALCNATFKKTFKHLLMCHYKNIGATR

[39] = molecular target: D(1B) dopamine receptor (Homo sapiens) (UniProt P21918); settings: Compound concentration 10.0 uM

Chain of Mitogen-activated protein kinase kinase kinase 3 (Homo sapiens) (Q99759 whole entry): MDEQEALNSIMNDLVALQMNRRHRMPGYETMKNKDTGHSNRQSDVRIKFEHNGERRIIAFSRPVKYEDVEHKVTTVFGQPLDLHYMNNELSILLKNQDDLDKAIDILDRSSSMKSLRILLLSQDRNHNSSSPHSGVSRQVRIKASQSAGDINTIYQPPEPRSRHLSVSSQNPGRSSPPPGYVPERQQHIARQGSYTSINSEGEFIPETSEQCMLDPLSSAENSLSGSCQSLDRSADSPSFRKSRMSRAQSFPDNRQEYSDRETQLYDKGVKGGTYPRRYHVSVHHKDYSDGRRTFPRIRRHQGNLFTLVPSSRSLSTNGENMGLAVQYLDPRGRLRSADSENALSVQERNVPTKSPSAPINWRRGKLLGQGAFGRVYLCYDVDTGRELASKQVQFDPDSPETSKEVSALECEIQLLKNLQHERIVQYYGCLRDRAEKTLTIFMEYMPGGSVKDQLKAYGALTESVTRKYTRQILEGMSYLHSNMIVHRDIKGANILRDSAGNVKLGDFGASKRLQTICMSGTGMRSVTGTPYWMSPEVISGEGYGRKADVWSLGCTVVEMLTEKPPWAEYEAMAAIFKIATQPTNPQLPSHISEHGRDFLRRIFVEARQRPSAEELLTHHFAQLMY
Chain of Citron Rho-interacting kinase (Homo sapiens) (O14578 whole entry): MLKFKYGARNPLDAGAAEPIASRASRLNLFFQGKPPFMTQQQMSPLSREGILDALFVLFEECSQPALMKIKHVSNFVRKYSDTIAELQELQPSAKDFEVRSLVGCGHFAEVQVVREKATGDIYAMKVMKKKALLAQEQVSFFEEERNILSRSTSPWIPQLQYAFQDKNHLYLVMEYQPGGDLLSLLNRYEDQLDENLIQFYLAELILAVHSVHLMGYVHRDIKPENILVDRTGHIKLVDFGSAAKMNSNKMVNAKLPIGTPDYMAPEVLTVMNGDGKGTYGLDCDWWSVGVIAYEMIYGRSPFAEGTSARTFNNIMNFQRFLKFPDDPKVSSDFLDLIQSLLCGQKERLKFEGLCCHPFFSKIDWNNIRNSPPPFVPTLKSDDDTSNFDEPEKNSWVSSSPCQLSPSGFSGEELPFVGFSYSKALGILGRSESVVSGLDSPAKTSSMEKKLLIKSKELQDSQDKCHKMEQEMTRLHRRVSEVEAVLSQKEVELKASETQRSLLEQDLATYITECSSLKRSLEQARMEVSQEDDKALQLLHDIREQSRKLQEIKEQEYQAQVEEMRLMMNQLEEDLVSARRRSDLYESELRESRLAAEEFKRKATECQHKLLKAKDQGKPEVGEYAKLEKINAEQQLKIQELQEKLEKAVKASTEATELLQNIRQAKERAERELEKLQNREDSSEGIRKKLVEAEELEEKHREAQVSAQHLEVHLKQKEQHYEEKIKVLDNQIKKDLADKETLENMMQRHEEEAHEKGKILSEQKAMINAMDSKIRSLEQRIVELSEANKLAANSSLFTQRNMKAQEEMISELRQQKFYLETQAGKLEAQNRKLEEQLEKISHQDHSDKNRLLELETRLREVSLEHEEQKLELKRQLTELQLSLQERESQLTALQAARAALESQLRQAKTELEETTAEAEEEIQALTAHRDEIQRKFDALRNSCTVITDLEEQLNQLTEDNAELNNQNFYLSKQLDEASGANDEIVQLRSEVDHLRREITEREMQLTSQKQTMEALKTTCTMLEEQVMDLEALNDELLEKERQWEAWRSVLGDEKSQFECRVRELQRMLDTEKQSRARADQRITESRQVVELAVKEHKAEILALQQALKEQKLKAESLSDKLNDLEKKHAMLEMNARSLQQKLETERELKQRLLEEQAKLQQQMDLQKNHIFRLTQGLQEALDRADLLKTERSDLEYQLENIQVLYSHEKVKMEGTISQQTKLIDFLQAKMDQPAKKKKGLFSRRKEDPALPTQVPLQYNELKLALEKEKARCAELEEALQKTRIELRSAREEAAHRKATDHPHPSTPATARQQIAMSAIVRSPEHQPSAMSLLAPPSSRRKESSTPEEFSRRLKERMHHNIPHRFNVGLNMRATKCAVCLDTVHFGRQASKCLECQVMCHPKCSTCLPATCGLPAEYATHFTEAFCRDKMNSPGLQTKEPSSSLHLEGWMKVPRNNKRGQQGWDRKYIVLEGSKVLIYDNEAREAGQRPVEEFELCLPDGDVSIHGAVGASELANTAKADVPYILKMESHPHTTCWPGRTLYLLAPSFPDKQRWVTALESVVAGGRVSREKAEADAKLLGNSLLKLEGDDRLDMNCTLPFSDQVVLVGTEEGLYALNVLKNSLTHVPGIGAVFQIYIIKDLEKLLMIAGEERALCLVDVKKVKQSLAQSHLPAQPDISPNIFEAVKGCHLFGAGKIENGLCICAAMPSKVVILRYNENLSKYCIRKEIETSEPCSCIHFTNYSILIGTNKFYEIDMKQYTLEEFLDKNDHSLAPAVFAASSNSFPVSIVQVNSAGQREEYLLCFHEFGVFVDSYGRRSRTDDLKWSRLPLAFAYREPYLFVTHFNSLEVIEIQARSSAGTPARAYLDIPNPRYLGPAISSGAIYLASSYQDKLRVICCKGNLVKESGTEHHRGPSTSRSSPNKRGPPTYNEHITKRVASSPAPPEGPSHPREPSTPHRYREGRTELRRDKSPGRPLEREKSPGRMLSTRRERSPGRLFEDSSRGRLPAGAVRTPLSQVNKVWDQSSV
Chain of Mast/stem cell growth factor receptor Kit (Homo sapiens) (P10721 whole entry): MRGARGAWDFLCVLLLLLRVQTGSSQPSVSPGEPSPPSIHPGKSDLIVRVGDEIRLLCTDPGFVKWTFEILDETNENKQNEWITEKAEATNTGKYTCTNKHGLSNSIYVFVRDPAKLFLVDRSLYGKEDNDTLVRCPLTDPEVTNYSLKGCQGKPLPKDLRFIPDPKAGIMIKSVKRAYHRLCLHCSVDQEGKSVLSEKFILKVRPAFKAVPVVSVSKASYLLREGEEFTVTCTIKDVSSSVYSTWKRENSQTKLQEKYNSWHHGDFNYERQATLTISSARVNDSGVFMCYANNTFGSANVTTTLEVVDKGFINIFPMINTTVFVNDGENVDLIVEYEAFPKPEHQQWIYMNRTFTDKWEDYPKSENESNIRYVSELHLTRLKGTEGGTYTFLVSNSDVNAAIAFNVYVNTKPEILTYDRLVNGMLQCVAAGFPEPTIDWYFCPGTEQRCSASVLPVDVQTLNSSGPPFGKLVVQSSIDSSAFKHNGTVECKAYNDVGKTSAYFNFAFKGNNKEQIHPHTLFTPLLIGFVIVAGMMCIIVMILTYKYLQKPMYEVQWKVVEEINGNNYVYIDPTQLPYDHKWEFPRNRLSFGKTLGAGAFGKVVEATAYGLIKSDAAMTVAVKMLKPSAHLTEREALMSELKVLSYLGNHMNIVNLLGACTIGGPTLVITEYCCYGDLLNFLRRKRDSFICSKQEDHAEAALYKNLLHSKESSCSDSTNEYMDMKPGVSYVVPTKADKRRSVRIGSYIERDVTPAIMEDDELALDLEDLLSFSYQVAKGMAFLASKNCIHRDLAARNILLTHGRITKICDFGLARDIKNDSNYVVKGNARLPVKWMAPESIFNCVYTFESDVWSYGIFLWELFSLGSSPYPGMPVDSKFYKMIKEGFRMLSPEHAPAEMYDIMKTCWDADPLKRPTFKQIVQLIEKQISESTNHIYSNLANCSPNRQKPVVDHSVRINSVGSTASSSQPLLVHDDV
Chain of Tyrosine-protein kinase ABL1 (Homo sapiens), P00519 [F317L] (P00519 whole entry F317L): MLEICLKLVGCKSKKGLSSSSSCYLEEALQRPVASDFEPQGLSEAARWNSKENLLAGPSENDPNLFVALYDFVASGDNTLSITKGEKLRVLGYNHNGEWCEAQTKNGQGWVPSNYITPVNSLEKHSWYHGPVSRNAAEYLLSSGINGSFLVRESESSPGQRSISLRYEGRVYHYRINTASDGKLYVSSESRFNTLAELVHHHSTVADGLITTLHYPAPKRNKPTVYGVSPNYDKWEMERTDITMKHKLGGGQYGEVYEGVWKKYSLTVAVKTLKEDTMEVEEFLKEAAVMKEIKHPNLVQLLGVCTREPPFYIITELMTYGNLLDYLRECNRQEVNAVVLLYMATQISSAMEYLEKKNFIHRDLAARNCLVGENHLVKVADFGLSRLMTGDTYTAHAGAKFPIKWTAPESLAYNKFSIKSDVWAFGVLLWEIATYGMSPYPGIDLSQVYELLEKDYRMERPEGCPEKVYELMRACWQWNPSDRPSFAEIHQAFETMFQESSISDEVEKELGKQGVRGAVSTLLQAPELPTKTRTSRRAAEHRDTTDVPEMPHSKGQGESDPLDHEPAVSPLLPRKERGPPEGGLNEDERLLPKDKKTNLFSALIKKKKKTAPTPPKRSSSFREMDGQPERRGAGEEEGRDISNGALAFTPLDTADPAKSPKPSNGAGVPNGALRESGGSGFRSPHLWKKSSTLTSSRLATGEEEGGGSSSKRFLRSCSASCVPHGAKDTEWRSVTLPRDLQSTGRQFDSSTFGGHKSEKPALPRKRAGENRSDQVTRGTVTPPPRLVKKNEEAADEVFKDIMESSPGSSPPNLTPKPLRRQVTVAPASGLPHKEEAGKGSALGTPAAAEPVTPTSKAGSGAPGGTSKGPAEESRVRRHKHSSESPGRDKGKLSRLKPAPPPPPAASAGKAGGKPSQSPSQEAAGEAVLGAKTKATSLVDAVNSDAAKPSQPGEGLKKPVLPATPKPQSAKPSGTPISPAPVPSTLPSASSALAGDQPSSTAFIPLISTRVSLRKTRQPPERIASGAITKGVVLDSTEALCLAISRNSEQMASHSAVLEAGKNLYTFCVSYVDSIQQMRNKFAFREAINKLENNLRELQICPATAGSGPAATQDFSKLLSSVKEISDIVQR
Chain of Mitogen-activated protein kinase 1 (Homo sapiens) (P28482 whole entry): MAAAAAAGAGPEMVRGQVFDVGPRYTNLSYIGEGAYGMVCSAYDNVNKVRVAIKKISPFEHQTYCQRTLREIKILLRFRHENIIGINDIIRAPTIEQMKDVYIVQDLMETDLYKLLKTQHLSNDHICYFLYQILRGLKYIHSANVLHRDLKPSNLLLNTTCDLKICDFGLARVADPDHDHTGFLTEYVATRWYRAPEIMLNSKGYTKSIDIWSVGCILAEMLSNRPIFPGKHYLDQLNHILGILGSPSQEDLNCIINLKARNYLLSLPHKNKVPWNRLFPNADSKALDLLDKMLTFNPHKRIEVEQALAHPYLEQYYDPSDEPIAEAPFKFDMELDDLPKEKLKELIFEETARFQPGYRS

O=C(NS(=O)(=O)c1ccc(NCC2CCOCC2)c([N+](=O)[O-])c1)c1ccc(N2CCN(Cc3ccc(C(F)(F)F)cc3-c3ccc(Cl)cc3)CC2)cc1Oc1cnc2[nH]ccc2c1 [A-1210227]
-0.7%: % Inhibition of Control Specific Binding (Mean n=2) [9]
inactive: residual activity [1] 100% | residual activity [2] 86% | residual activity [3] 100% | residual activity [4] 84% | residual activity [5] 100% | residual activity [7] 78% | residual activity [8] 72% | residual activity [10] 92% | residual activity [11] 82% | residual activity [12] 96% | residual activity [13] 81% | residual activity [14] 84% | residual activity [15] 100% | residual activity [16] 82% | residual activity [17] 82% | residual activity [18] 74% | residual activity [19] 91% | residual activity [20] 100% | residual activity [21] 85% | residual activity [22] 93% | residual activity [23] 87% | residual activity [24] 100% | residual activity [25] 75% | residual activity [26] 100% | residual activity [27] 84% | residual activity [28] 100% | residual activity [29] 80% | residual activity [30] 83% | residual activity [32] 87% | residual activity [33] 100% | residual activity [34] 94% | residual activity [35] 100% | residual activity [36] 94% | inhibition [39] 9.7%
0.3%: % Inhibition of Control Specific Binding (Mean n=2) [38]
2.2%: % Inhibition of Control Specific Binding (Mean n=2) [6]
-9.4%: % Inhibition of Control Specific Binding (Mean n=2) [37]
-5.1%: % Inhibition of Control Specific Binding (Mean n=2) [31]

CO[C@H]1CC[C@H](CNc2ccc(S(=O)(=O)NC(=O)c3ccc(N4CCN(CC5=C(c6ccc(Cl)cc6)CC(C)(C)CC5)CC4)cc3Oc3cnc4[nH]ccc4c3)cc2[N+](=O)[O-])CC1 [A-1211212]
-4.7%: % Inhibition of Control Specific Binding (Mean n=2) [38]
4.6%: % Inhibition of Control Specific Binding (Mean n=2) [37]
-8.6%: % Inhibition of Control Specific Binding (Mean n=2) [9]
inactive: residual activity [1] 91% | residual activity [2] 87% | residual activity [3] 82% | residual activity [4] 62% | residual activity [5] 100% | residual activity [7] 82% | residual activity [8] 97% | residual activity [10] 100% | residual activity [11] 83% | residual activity [12] 81% | residual activity [13] 86% | residual activity [14] 98% | residual activity [15] 98% | residual activity [16] 86% | residual activity [17] 77% | residual activity [18] 72% | residual activity [19] 74% | residual activity [20] 84% | residual activity [21] 84% | residual activity [22] 78% | residual activity [23] 84% | residual activity [24] 100% | residual activity [25] 66% | residual activity [26] 100% | residual activity [27] 61% | residual activity [28] 83% | residual activity [29] 100% | residual activity [30] 76% | residual activity [32] 76% | residual activity [33] 85% | residual activity [34] 100% | residual activity [35] 78% | residual activity [36] 67% | inhibition [39] 34.1%
29.7%: % Inhibition of Control Specific Binding (Mean n=2) [6]
-3.8%: % Inhibition of Control Specific Binding (Mean n=2) [31]
